In data set [1] the test system is THP-1, DH82, HepG2, HaCaT and HPF cells. Also on record: method as in PMID 34984300. The settings on record: cited from earlier work.
In another data set the test system is THP-1 cells. On the set-up: method as in PMID 34984300. The settings on record: cited from earlier work.
For data set [2], the system named is L. infantum (MHOM/MA/67/ITMAP-263) axenic amastigotes. Kind of data set: In vivo anti-amastigote activity in BALB/c mice infection model (limiting dilution parasite burden). The settings on record: spleen, liver, bone marrow; URB1483 5 mg/kg/day IP in 60% PEG 400, 10 days; 5 mg/kg/day. How it is done:
The compound URB1483 was selected for the in vivo evaluation on a BALB/c mice infection model. Six- to seven-week-old BALB/c mice were purchased from Charles River Laboratories (Barcelona, Spain) or the I3S (Porto, Portugal) animal facility. Luciferase-expressing L. infantum (MHOM/MA/67/ITMAP-263) axenic amastigotes were cultured in complete cell-free medium MAA/20 [20] at 37°C with 5% CO2. Five-day-old cultures of amastigotes were washed twice with PBS and resuspended at a concentration of 1×10^9 parasites/Ml. A total of 17 mice were infected with 100 μL of parasite suspension containing 1×10^8 parasites. The injection was performed intra-venously (IV) in the tails of mice, and treatments started 21 days post-infection for 10 consecutive days. Formulation studies are reported in the Supporting Information (S1 Table in S1 File). […]
Mice well-being-assessment was checked every two days, in terms of weight control and the presence of stress signs. […] Spleen and liver were weighted, and bone marrow cells were counted with automatic cell counter EVE^TM (NanoEnTek, Seul, Korea). […] For bone marrow, the number of parasites was calculated per 10^5 cells using the formula: [(geometric mean of reciprocal titer from each triplicate/number of cells) × reciprocal fraction of the cells inoculated into the first well]. […]

The test system of data set [3] is L. infantum intracellular amastigotes. On the set-up: method as in PMID 34984300. The settings on record: compared with pentamidine; cited from earlier work.
The nature of data set [4]: Formulation (solubility and stability) study of URB1483. The settings on record: for Solubility: 48-72 h at 37 °C. It counts as physicochemical. On the procedure:
Equivalence calculation between URB1483 concentration and injectable dose (mg/kg) […]
Considering an average mice weight of 25 g and an IP injectable volume of 100 μL, the following […]
correspondence can be considered:
[URB1483](mg/mL) = Dose (mg/kg) ∙ 0.025 (kg)
[URB1483](mM) = Dose (mg/kg) ∙0.025 (kg)
General procedure for the formulation study
To the indicated volume of the URB1483 stock solution in DMSO (25.0 mg/mL , 50.24 mM) were […]
added the appropriate volume or weight of excipient and the resulting mixture was heated at 37 °C […]
and sonicated for 10-20 min. Finally, distilled water was added to reach the final volume of 1 mL […]
(Table S1). The resulting formulation was ma intained at 37 °C under stirring for 48-72 h. At regular […]
time points, aliquots of the described formulations were sampled, centrifuged (8000 rpm, 10 min), […]
and two volumes of acetonitrile were added. After further centrifugation (8000 rpm, 10 min), the […]
resulted clear samples were analyzed by HPLC -ESI-MS for a percentage of the remaining compound.
URB1483 was considered soluble and stable in the formulation with more than 90% of the compoun d […]
Table S1 – Preliminary Formulation Study on URB1483[a]
Entry Final Dose Stock Solution URB1483 Volume Excipient Solubility[b]
2[c] 1 mg/kg 5 μL DMSO (95 μL) 🗶
3[c] 1 mg/kg 5 μL DMSO (195 μL) ✓
[a] DMSO = dimethylsulfoxide; PG = propylene glycol; PEG = polyethylene glycol; HPBC = 2-hydropropyl- […]
β-cyclodextrin. [b] URB1483 was considered soluble and stable with more than 90% of the compound […]
remaining unaltered after 48-72 h at 37 °C, by HPLC-ESI-MS analysis. [c] Instead of water, a physiological […]
solution (saline) was utilized.

Data set [5] deals with L. infantum MHOM/TN/80/IPT1 promastigotes. On the set-up: method as in PMID 34984300. The settings on record: read-out: IC50 against L. infantum promastigotes; cited from earlier work.

pIC50: −log10 of the molar value. “And” between values parts separate entries of the source, which are not always exact repeats. Equal entries are not always repeated. “Also recorded” adds a separate entry of the source.

For orientation: CC50 means the concentration giving 50% cytotoxicity. As a reminder, the pIC50 is the IC50 on a negative log10 scale, so that one unit is a factor of ten. In the case of `CCOC(=O)c1c(C(=O)OC)cn(CC(c2cn(C)c3ccccc23)c2cn(C)c3ccccc23)c1C` [URB1483], the “toxicity on mammalian cell lines” value in data set [1] is “did not affect the viability; also recorded: No toxicity”. Further, the half-maximal cytotoxic concentration (CC50) with THP-1 cells was greater than 200 µM. The “selectivity index (SI)” value in the data set on THP-1 cells is “greater than 55”. Besides, the “effect on parasite burden (in vivo efficacy)” value in data set [2] is on record as “did not significantly reduce parasite burden; also recorded: No in vivo efficacy; also recorded: could not reduce parasite burden; also recorded: ineffective”. For the same compound, the “efficacy on in vitro infection model” value in data set [3] was “comparable to that of the commercial drug pentamidine”. Further, the water solubility result in data set [4] is reported as “Poorly soluble in water; also recorded: very poor water solubility; also recorded: poor water solubility”. In data set [4] (60% PEG 400 in water, 1.25 mg/mL, mouse weight 25 g, injection volume 100 μL), this compound returned a maximum injectable concentration of 5 mg/kg. The Solubility result is “✓ (URB1483 was considered soluble and stable with more than 90% of the compound remaining unaltered after 48-72 h at 37 °C, by HPLC-ESI-MS analysis)” in data set [4] (entry 3: final dose 1 mg/kg, DMSO (195 μL), saline); “✓ (URB1483 was considered soluble and stable with more than 90% of the compound remaining unaltered after 48-72 h at 37 °C, by HPLC-ESI-MS analysis)” in data set [4] (entry 6: final dose 1 mg/kg, PG (600 mg), water); “✓ (URB1483 was considered soluble and stable with more than 90% of the compound remaining unaltered after 48-72 h at 37 °C, by HPLC-ESI-MS analysis)” in data set [4] (entry 9: final dose 1 mg/kg, PEG 400 (400 mg), water); “✓ (URB1483 was considered soluble and stable with more than 90% of the compound remaining unaltered after 48-72 h at 37 °C, by HPLC-ESI-MS analysis)” in data set [4] (entry 11: final dose 1 mg/kg, PEG 400 (500 mg), water); “✓ (URB1483 was considered soluble and stable with more than 90% of the compound remaining unaltered after 48-72 h at 37 °C, by HPLC-ESI-MS analysis)” in data set [4] (entry 12: final dose 2 mg/kg, PEG 400 (500 mg), water); “✓ (URB1483 was considered soluble and stable with more than 90% of the compound remaining unaltered after 48-72 h at 37 °C, by HPLC-ESI-MS analysis)” in data set [4] (entry 14: final dose 1 mg/kg, PEG 400 (600 mg), water). The Solubility entry was “✓ (URB1483 was considered soluble and stable with more than 90% of the compound remaining unaltered after 48-72 h at 37 °C, by HPLC-ESI-MS analysis)” in data set [4] (entry 15: final dose 2 mg/kg, PEG 400 (600 mg), water); “✓ (URB1483 was considered soluble and stable with more than 90% of the compound remaining unaltered after 48-72 h at 37 °C, by HPLC-ESI-MS analysis)” in data set [4] (entry 16: final dose 5 mg/kg, PEG 400 (600 mg), water); “✓ (URB1483 was considered soluble and stable with more than 90% of the compound remaining unaltered after 48-72 h at 37 °C, by HPLC-ESI-MS analysis)” in data set [4] (entry 19: final dose 1 mg/kg, HPBC (400 mg), water). In addition, the negative logarithm of the IC50 (pIC50) in data set [5] is 5.43 and 5.40.

The values are drawn from PMC11175440, “Exploring hydrophilic 2,2-di(indol-3-yl)ethanamine derivatives against Leishmania infantum” (PLOS ONE, 2024).
